In ChEMBL document CHEMBL4483862, “Open-source discovery of chemical leads for next-generation chemoprotective antimalarials” (2018):
pIC50: −log10 of the molar value.

Test system: Plasmodium berghei
Test: Luciferase/luciferin-expressing antifolate-resistant parasites were used to infect a culture of HepG2 cells that were pre-incubated with compounds. Infected hepatocytes emit light due to the luciferase reaction. Assay results are presented as the percent inhibition of light emission compared to control. […]
Type: functional
Conditions: sporozoite; for IC90: read-out: LUCIFERASE INFECTION ASSAY - IC90
[1] = read-out: LUCIFERASE INFECTION ASSAY - IC50

SMILES	IC90 [µM]	pIC50 [1]	further results
NC(=NC(=S)Nc1cc(Cl)ccc1Cl)c1ccccc1	> 10.2	–	pIC50 (HEPG2TOX_HILL_SLOPE 6.22, HEPG2TOX_R_SQUARED 0.375, read-out: LUCIFERASE INFECTION ASSAY - IC50): < 4.99
OCc1ccccc1-c1cn2c(-c3ccc(Oc4ccccc4)cc3)cnc2cn1	8.14	6.19	–
COc1ccccc1N(C)S(=O)(=O)c1ccc(C)c(C(=O)Nc2nc3ccccc3s2)c1	8.14	–	pIC50 (PBLUC_HILL_SLOPE 17.5, PBLUC_R_SQUARED 0.446, read-out: LUCIFERASE INFECTION ASSAY - IC50): 5.14
Cc1ccc(C(=O)Nc2ccnn2CC(C)C)cn1	> 10	< 5.00	–
Cc1n[nH]c(Nc2ccc(Oc3ccccc3)cc2)nc1=O	> 11.2	< 4.95	–
COc1cccc(Nc2nccc3nc(-c4cccc(OC(F)(F)F)c4)[nH]c23)c1	> 10	–	pIC50 (PBLUC_HILL_SLOPE 2.87, PBLUC_R_SQUARED 0.483, read-out: LUCIFERASE INFECTION ASSAY - IC50): 5.29
COc1cccc(-c2cc(=O)n(-c3ccc(F)cc3)[nH]2)c1	> 11.6	< 4.94	–
CCOC(=O)c1sc(SCc2ccc(Cl)cc2)c(S(=O)(=O)C(C)C)c1-n1cccc1	> 6.82	–	pIC50 (FFLUC_HILL_SLOPE 13.5, FFLUC_R_SQUARED 0.375, read-out: LUCIFERASE INFECTION ASSAY - IC50): < 5.17
CCS(=O)(=O)c1ncc(Cl)c(C(=O)Nc2cc(Cl)cc(Cl)c2)n1	3.19	–	pIC50 (HEPG2TOX_HILL_SLOPE 4.63, HEPG2TOX_R_SQUARED 0.595, PBLUC_HILL_SLOPE 15.4, PBLUC_R_SQUARED 0.531, read-out: LUCIFERASE INFECTION ASSAY - IC50): 5.56
O=[N+]([O-])c1ccc(-c2nnc(SCc3c(Cl)cccc3Cl)o2)o1	8.84	–	pIC50 (HEPG2TOX_HILL_SLOPE 11.4, HEPG2TOX_R_SQUARED 0.952, PBLUC_HILL_SLOPE 3.38, PBLUC_R_SQUARED 0.564, read-out: LUCIFERASE INFECTION ASSAY - IC50): 5.34
Cc1nc(Nc2ccc(C(=O)N(C)C)cc2)c2c(-c3ccccc3)csc2n1	8.69	–	pIC50 (FFLUC_HILL_SLOPE 16.2, FFLUC_R_SQUARED 0.398, PBLUC_HILL_SLOPE 15.9, 4.17, PBLUC_R_SQUARED 0.757, 0.868, read-out: LUCIFERASE INFECTION ASSAY - IC50): 5.13
CC(C)Cc1ccc(C(NC(=O)CCc2ccc(S(N)(=O)=O)cc2)c2cccs2)cc1 (stereo unspecified)	> 10	–	pIC50 (PBLUC_HILL_SLOPE 2.82, PBLUC_R_SQUARED 0.609, read-out: LUCIFERASE INFECTION ASSAY - IC50): 5.13
CCc1ccc(CN(C)C(=O)c2cccc(S(=O)(=O)Nc3ccccc3OC)c2)cc1	> 10	–	pIC50 (HEPG2TOX_HILL_SLOPE 2.04, HEPG2TOX_R_SQUARED 0.142, read-out: LUCIFERASE INFECTION ASSAY - IC50): < 5.00
CC(=O)c1c(C)cc(C)c(CN2C(=O)CN(c3ccccc3)C2=O)c1C	> 10	< 5.00	–
Cn1cc(C(=O)Nc2ccc(Sc3ccc(Br)cc3)cc2)cn1	6.49	–	pIC50 (HEPG2TOX_HILL_SLOPE 16.3, HEPG2TOX_R_SQUARED 0.811, PBLUC_HILL_SLOPE 1.99, PBLUC_R_SQUARED 0.873, read-out: LUCIFERASE INFECTION ASSAY - IC50): 5.67
Cc1nc2ncnn2c(Nc2cccc(Cl)c2C)c1Cl	> 10.7	–	pIC50 (HEPG2TOX_HILL_SLOPE 3, HEPG2TOX_R_SQUARED 0.869, PBLUC_HILL_SLOPE 3.03, PBLUC_R_SQUARED 0.114, read-out: LUCIFERASE INFECTION ASSAY - IC50): 5.26
COc1ccc(-c2cnc3sc(NCCc4ccc(S(N)(=O)=O)cc4)nn23)cn1	> 7.67	< 5.12	–
Cc1nc(Sc2nnnn2C)c2c3c(sc2n1)CCC3	4.17	–	pIC50 (HEPG2TOX_HILL_SLOPE 11.4, HEPG2TOX_R_SQUARED 0.852, PBLUC_HILL_SLOPE 13, PBLUC_R_SQUARED 0.536, read-out: LUCIFERASE INFECTION ASSAY - IC50): 5.45
CNc1snc(C)c1C(=O)NCc1ccc(COCC(F)(F)F)cc1	1.72	–	pIC50 (HEPG2TOX_HILL_SLOPE 1.16, HEPG2TOX_R_SQUARED 0.865, PBLUC_HILL_SLOPE 3.24, 27.9, PBLUC_R_SQUARED 0.892, 0.904, read-out: LUCIFERASE INFECTION ASSAY - IC50): 5.95

SMILES	IC90 [µM]	pIC50 [1]	further results
O=C(Nc1nc2ccccc2[nH]1)c1cccc(S(=O)(=O)N(Cc2ccccc2)c2ccccc2Cl)c1	3.66	–	pIC50 (PBLUC_HILL_SLOPE 15.7, PBLUC_R_SQUARED 0.534, read-out: LUCIFERASE INFECTION ASSAY - IC50): 5.50
O=C(Cn1ncc(Cl)c(Cl)c1=O)NCCC(c1ccccc1)c1ccccc1	7.67	5.27	–
O=C(Nc1nc2c(s1)CCC2)c1cnn(-c2ccccc2)c1C1CC1	0.405	–	pIC50 (FFLUC_HILL_SLOPE 2.39, FFLUC_R_SQUARED 0.896, PBLUC_HILL_SLOPE 0.607, PBLUC_R_SQUARED 0.989, read-out: LUCIFERASE INFECTION ASSAY - IC50): 7.97
O=C(Cn1ncc(Cl)c(Cl)c1=O)Nc1cc(S(=O)(=O)N2CCOCC2)ccc1Cl	3.74	–	pIC50 (HEPG2TOX_HILL_SLOPE 12.1, HEPG2TOX_R_SQUARED 0.84, PBLUC_HILL_SLOPE 14, PBLUC_R_SQUARED 0.266, read-out: LUCIFERASE INFECTION ASSAY - IC50): 5.49
Cc1cc(C(C)(C)C)cc(C)c1C[n+]1c2n(c3ccc(C(F)(F)F)cc31)CCCCC2	2.85	–	pIC50 (HEPG2TOX_HILL_SLOPE 3.95, HEPG2TOX_R_SQUARED 0.938, PBLUC_HILL_SLOPE 4.2, PBLUC_R_SQUARED 0.767, read-out: LUCIFERASE INFECTION ASSAY - IC50): 5.77
CCCCN(C(=O)CCC(=O)OCC(=O)NC(=O)NCC)c1c(N)n(CCC)c(=O)[nH]c1=O	> 10	< 5.00	–
O=C(Cc1ccccc1)NCC(=O)N1CCc2nc(NCc3cccc(Oc4ccccc4)c3)ncc2C1	> 6.5	< 5.19	–
Cc1cc2ccccn2c1C(=O)c1cc2c(C)nn(-c3ccccc3)c2s1	> 10	< 5.00	–
COc1ccc(CC(N)c2csc(NC(=O)c3cccc(OC(F)(F)F)c3)n2)cc1 (stereo unspecified)	7.48	–	pIC50 (PBLUC_HILL_SLOPE 9.24, PBLUC_R_SQUARED 0.637, read-out: LUCIFERASE INFECTION ASSAY - IC50): 5.23
CCCNC(=O)c1c(NC(=O)c2ccc(CC)cc2)nc2ccc(C)cn12	3.22	–	pIC50 (HEPG2TOX_HILL_SLOPE 14.6, HEPG2TOX_R_SQUARED 0.266, PBLUC_HILL_SLOPE 22.2, PBLUC_R_SQUARED 0.534, read-out: LUCIFERASE INFECTION ASSAY - IC50): 5.53
Cc1c(C(=O)Nc2cccc(Oc3ccccc3)c2)sc(=O)n1Cc1ccncc1	> 7.9	< 5.10	–
CC1c2ccsc2CCN1C(=S)NC(=O)c1ccc(Cl)cc1 (stereo unspecified)	> 9.4	–	pIC50 (HEPG2TOX_HILL_SLOPE 6.89, HEPG2TOX_R_SQUARED 0.823, PBLUC_HILL_SLOPE 41.7, PBLUC_R_SQUARED 0.0283, read-out: LUCIFERASE INFECTION ASSAY - IC50): 5.04
CCN(C(=O)CSc1nc2ccccc2c(=O)n1-c1ccc(C(C)C)cc1)c1cccc2ccccc12	9.59	–	pIC50 (FFLUC_HILL_SLOPE 12.2, FFLUC_R_SQUARED 0.564, PBLUC_HILL_SLOPE 2.95, PBLUC_R_SQUARED 0.421, read-out: LUCIFERASE INFECTION ASSAY - IC50): 5.34
COc1ccc(NS(=O)(=O)c2cc([N+](=O)[O-])ccc2NNC(=S)NC2CCCCC2)cc1	> 10	< 5.00	–
COC(=O)c1occc1/C=C/C(=O)C12CC3CC(CC(C3)C1)C2	7.04	–	pIC50 (HEPG2TOX_HILL_SLOPE 9.64, HEPG2TOX_R_SQUARED 0.941, PBLUC_HILL_SLOPE 4.67, PBLUC_R_SQUARED 0.564, read-out: LUCIFERASE INFECTION ASSAY - IC50): 5.36
CCn1c(-c2ccccc2)c(C(=O)COc2ccc(F)cc2Br)c2ccccc21	> 10	–	pIC50 (FFLUC_HILL_SLOPE 1400, FFLUC_R_SQUARED 0.245, read-out: LUCIFERASE INFECTION ASSAY - IC50): < 5.00
Cc1nn(-c2cccc(C(F)(F)F)c2)c2sc(C(=O)NC(=S)N(C)C3CCCCC3)cc12	1.27	5.96	–
CC1(C(=O)NCCC(F)(F)F)Cc2c(-c3ccc4c(c3)OCO4)ccnc2O1 (stereo unspecified)	6.15	–	pIC50 (FFLUC_HILL_SLOPE 14.8, FFLUC_R_SQUARED 0.74, HEPG2TOX_HILL_SLOPE 2.73, HEPG2TOX_R_SQUARED 0.858, PBLUC_HILL_SLOPE 3.16, PBLUC_R_SQUARED 0.521, read-out: LUCIFERASE INFECTION ASSAY - IC50): 5.51
CCN(CC)S(=O)(=O)c1ccc(-c2csc(Nc3ccccn3)n2)cc1	> 10	< 5.00	–
